Laboratory results from patent publication US9512114B2, “Substituted aminopyrimidine compounds and methods of use” (Calitor Sciences, LLC, priority 2013, dated 2016).

Experiments:
PI3K (p110δ/p85α) (h) = PI3K (p110δ/p85α) (h) (Homo sapiens (Human), UniProt O00329); test: PI3K (p110δ/p85α) (h) non-radioactive HTRF kinase assay; type: biochemical; conditions: performed at Millipore UK Ltd
Description: (§1) The above assay procedure can be used to determine the IC50 for inhibition and/or the inhibition constant, Ki.
PI3K (p110δ/p85α) (h) [Non-Radioactive Assay]
(§2) PI3K (p110δ/p85α) (h) is incubated in assay buffer containing 10 μM phosphatidylinositol-4, 5-bisphosphate and MgATP (concentration as required). The reaction is initiated by the addition of the MgATP mix. After incubation for 30 minutes at room temperature, the reaction is stopped by the addition of stop solution containing EDTA and biotinylated phosphatidylinositol-3,4,5-trisphosphate. Finally, detection buffer is added, which contains europium-labelled anti-GST monoclonal antibody, GST-tagged GRP1 PH domain and streptavidin-allophycocyanin. The plate is then read in timeresolved fluorescence mode and the homogenous time-resolved fluorescence (HTRF) signal is determined according to the formula HTRF=10000×(Em665 nm/Em620 nm).
(§3) The kinase assays described herein were performed at Millipore UK Ltd, Dundee Technology Park, Dundee DD2 1SW, UK.

PI3K (p110α/p85α) (h) = PI3K (p110α/p85α) (h) (Homo sapiens (Human), UniProt P42336); test: PI3K (p110α/p85α) (h) non-radioactive HTRF kinase assay; type: biochemical; conditions: performed at Millipore UK Ltd
Sequence of PI3K (p110α/p85α) (h) (P42336 whole entry): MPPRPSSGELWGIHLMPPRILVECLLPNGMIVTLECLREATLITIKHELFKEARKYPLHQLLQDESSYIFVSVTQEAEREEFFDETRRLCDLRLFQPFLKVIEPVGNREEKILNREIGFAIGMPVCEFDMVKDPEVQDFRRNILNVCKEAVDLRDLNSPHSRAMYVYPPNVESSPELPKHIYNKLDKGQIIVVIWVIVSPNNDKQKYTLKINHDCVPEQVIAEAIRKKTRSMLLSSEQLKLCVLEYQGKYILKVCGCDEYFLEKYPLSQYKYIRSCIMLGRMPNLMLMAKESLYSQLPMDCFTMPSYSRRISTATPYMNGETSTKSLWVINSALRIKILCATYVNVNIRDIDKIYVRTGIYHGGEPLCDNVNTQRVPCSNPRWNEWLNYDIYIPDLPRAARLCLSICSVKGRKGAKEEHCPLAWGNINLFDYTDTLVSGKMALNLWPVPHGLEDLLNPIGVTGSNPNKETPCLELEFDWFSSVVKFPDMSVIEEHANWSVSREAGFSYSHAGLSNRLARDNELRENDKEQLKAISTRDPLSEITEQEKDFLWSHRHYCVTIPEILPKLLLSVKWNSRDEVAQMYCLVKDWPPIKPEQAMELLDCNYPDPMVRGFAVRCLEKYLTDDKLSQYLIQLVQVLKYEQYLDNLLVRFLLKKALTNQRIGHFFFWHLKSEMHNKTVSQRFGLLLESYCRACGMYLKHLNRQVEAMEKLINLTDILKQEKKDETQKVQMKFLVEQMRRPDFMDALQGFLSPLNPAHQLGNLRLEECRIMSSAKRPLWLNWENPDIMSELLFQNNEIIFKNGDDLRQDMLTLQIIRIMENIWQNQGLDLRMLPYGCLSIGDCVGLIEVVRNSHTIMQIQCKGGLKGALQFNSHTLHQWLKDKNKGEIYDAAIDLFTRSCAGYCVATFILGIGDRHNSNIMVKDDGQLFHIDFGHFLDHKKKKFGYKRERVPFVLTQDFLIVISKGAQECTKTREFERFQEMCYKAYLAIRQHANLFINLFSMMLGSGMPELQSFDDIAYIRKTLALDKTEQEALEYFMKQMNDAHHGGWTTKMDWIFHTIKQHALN
Sequence of PI3K (p110α/p85α) (h) (P27986 whole entry partner): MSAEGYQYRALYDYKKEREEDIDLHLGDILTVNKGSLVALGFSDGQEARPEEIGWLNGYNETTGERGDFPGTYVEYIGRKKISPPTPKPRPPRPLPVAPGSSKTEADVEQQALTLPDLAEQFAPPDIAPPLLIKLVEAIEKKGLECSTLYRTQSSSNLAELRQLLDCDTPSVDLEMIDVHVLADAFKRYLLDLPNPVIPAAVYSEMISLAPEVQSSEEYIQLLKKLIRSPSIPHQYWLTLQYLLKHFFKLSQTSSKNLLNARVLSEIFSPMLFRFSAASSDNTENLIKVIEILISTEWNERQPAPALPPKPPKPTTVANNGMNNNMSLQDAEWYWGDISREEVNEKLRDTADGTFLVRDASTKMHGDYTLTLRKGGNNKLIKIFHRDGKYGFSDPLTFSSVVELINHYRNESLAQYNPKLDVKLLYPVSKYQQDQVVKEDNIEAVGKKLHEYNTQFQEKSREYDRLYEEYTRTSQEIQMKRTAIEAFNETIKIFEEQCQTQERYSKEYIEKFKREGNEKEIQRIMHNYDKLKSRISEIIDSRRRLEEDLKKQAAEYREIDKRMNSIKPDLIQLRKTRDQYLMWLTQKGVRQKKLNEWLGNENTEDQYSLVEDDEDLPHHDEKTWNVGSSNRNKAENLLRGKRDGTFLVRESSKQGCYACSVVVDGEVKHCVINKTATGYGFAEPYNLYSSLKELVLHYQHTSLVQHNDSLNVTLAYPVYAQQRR
Description: as §1
PI3K (p110α/p85α) (h) [Non-Radioactive Assay]
as §2, with “(p110α/p85α)” for “(p110δ/p85α)”, “phosphatidylinositol 4,5-bisphosphate” for “phosphatidylinositol-4, 5-bisphosphate”, “ATP solution.” for “MgATP mix.”, “streptavidin allophycocyanin.” for “streptavidin-allophycocyanin.”
as §3

[1] = Compound stability in rat liver microsomes; type: in vitro ADME; conditions: pH 7.4; for CLint scaled at 5 μM: liver microsomes, in vivo CLint extrapolated from rat liver microsome incubation; for half-life at 5 μM: rat liver microsomes 0.5 mg protein/mL, compound 5 μM, NADPH 1.0 mM, 37° C., read-out: Rat T1/2
How it was run: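 Human or rat liver microsomes (0.5 mg protein/mL) incubated with compound (5 μM) and NADPH (1.0 mM) in 100 mM potassium phosphate, pH 7.4, 0.05% DMSO, 37° C, sampled 0–60 min and quenched with cold acetonitrile. Remaining compound quantified by LC/MS/MS as % of time zero; CLint extrapolated.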

PI3K (p110β/p85α) (h) = PI3K (p110β/p85α) (h) (Homo sapiens (Human), UniProt P42338); test: PI3K (p110β/p85α) (h) non-radioactive HTRF kinase assay; type: biochemical; conditions: performed at Millipore UK Ltd
Sequence of PI3K (p110β/p85α) (h) (P42338 whole entry): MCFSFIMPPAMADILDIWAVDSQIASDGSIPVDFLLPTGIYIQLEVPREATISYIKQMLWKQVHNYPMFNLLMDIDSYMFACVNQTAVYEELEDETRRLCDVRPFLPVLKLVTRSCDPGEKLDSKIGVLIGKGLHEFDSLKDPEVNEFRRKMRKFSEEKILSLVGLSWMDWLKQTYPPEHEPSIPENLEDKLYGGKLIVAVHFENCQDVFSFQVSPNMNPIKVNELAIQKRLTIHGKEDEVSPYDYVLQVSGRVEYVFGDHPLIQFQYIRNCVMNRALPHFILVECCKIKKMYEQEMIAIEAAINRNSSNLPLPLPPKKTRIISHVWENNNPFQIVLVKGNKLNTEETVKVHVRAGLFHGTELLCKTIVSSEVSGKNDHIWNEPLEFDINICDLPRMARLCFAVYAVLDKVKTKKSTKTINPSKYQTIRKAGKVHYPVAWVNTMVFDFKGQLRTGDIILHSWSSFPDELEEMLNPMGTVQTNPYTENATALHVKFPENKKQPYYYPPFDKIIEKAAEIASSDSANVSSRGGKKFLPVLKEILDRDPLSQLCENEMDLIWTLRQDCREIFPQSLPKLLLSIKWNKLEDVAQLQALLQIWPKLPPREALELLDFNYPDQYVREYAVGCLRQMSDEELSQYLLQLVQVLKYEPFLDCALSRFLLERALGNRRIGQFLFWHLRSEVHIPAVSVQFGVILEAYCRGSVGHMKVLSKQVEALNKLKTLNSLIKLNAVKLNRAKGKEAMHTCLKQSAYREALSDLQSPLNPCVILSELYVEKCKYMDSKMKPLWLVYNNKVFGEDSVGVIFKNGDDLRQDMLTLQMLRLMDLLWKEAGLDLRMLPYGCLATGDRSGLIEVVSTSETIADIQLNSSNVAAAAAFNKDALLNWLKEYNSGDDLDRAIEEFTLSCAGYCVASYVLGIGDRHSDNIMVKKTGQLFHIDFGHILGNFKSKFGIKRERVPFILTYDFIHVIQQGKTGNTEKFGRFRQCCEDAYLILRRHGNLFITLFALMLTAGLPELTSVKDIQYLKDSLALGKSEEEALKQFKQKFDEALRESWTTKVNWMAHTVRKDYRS
Sequence of PI3K (p110β/p85α) (h) (P27986 whole entry partner): as the sequence (P27986 whole entry partner) above
Description: as §1
PI3K (p110β/p85α) (h) [Non-Radioactive Assay]
as §2, with “([…])” for “(p110δ/p85α)”
as §3

Sequence of PI3K (p110δ/p85α) (h) (O00329 whole entry): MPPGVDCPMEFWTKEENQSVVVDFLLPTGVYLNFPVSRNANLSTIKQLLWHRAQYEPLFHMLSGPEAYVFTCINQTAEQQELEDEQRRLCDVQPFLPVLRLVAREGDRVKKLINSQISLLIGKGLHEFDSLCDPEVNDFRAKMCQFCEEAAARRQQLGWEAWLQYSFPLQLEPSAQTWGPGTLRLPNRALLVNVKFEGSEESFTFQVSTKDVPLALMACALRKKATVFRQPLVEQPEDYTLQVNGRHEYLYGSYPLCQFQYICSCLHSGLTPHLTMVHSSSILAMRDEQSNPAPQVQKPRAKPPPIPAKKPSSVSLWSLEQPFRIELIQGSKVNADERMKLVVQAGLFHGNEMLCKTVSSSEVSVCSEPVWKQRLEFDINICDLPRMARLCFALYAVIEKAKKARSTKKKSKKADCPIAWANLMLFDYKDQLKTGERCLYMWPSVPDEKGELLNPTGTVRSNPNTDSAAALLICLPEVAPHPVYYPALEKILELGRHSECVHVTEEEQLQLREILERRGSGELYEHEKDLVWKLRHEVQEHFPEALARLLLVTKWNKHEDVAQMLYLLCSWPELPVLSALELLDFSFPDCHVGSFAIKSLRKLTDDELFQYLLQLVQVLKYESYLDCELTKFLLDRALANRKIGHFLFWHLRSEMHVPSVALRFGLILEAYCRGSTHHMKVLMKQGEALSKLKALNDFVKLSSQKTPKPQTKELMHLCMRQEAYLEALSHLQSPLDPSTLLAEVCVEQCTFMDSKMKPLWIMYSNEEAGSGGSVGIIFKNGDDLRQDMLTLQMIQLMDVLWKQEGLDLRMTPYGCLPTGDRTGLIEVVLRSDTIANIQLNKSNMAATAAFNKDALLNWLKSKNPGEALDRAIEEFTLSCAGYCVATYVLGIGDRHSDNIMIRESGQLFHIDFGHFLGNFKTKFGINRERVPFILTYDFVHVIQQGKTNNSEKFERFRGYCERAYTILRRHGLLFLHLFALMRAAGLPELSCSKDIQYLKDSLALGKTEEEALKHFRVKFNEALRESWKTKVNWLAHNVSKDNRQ
Sequence of PI3K (p110δ/p85α) (h) (P27986 whole entry partner): as the sequence (P27986 whole entry partner) above

Row | Compound | IC50 (PI3K (p110δ/p85α) (h)) | IC50 (PI3K (p110α/p85α) (h)) | CLint scaled at 5 μM [1] | half-life at 5 μM [1] | IC50 (PI3K (p110β/p85α) (h))
1 | Cc1nnc(-c2c(N)ncnc2N[C@@H](C)c2cc3cccc(Cl)c3c(=O)n2-c2ccccc2)o1 [Ex. 9, (S)-3-(1-((6-amino-5-(5-methyl-1,3,4-oxadiazol-2-yl)pyrimidin-4-yl)amino)ethyl)-8-chloro-2-phenylisoquinolin-1(2H)-one] | 4 nM | 2680 nM | 185 mL/min/kg | 13.4 min | 
2 | Cc1noc(-c2c(N)ncnc2N[C@@H](C)c2cc3cccc(Cl)c3c(=O)n2-c2ccccc2)n1 [Ex. 8, (S)-3-(1-((6-amino-5-(3-methyl-1,2,4-oxadiazol-5-yl)pyrimidin-4-yl)amino)ethyl)-8-chloro-2-phenylisoquinolin-1(2H)-one] | 1 nM | 276 nM | 229 mL/min/kg | 10.9 min | 
3 | Cc1noc(-c2c(N)ncnc2N[C@@H](C)c2cc3cccc(-c4cnn(C)c4)c3c(=O)n2C2CC2)n1 [Ex. 26, (S)-3-(1-((6-amino-5-(3-methyl-1,2,4-oxadiazol-5-yl)pyrimidin-4-yl)amino)ethyl)-2-cyclopropyl-8-(1-methyl-1H-pyrazol-4-yl)isoquinolin-1 (2H)-one] | 4 nM | 132 nM | 22.3 mL/min/kg | 112 min | 176 nM
4 | Cc1nnc(-c2c(N)ncnc2N[C@@H](C)c2cc3cccc(Cl)c3c(=O)n2C2CC2)o1 [Ex. 4, (S)-3-(1-((6-amino-5-(5-methyl-1,3,4-oxadiazol-2-yl)pyrimidin-4-yl)amino)ethyl)-8-chloro-2-cyclopropylisoquinolin-1(2H)-one] | 11 nM | 1470 nM | 102 mL/min/kg | 24.4 min | 30 nM
5 | Cc1nnc(-c2c(N)ncnc2N[C@@H](C)c2cc3cccc(-c4cnn(C)c4)c3c(=O)n2C2CC2)o1 [Ex. 25, (S)-3-(1-((6-amino-5-(5-methyl-1,3,4-oxadiazol-2-yl)pyrimidin-4-yl)amino)ethyl)-2-cyclopropyl-8-(1-methyl-1H-pyrazol-4-yl)isoquinolin-1 (2H)-one] | 13 nM | 882 nM | 14.5 mL/min/kg | 171 min | 900 nM
